Experimental data reported in patent US6800653B2, “Epothilone derivatives” (priority 2001, dated 2004).
Where two headings read alike, the source gives them in different places.

Legend:
calf brain tubulin = test: In vitro tubulin polymerization; assay type: biochemical; details: interpolated concentration inducing an initial slope of 0.01 OD/minute; 1.0 mg/ml microtubule protein, 37°; read-out: Tubulin assay EC0.01
Protocol: In vitro Tubulin Polymerization
Twice cycled (2×) calf brain tubulin was prepared following the procedure of Williams and Lee (see Williams, R. C., Jr., and Lee, J. C. Preparation of tubulin from brain. Methods in Enzymology 85, Pt. D: 376-385, 1982) and stored in liquid nitrogen before use. Quantification of tubulin polymerization potency is accomplished following a modified procedure of Swindell, et al., (see Swindell, C. S., Krauss, N. E., Horwitz, S. B., and Ringel, L. Biologically active taxol analogues with deleted A-ring side chain substituents and variable C-2′ configurations. J. Med. Chem. 34: 1176-1184, 1991). These modifications, in part, result in the expression of tubulin polymerization potency as an effective concentration for any given compound. For this method, different concentrations of compound in polymerization buffer (0.1M MES, 1 mM EGTA, 0.5 mM MgCl2, pH 6.6) are added to tubulin in polymerization buffer at 37° in microcuvette wells of a Beckman (Beckman Instruments) Model DU 7400 UV spectrophotometer. A final microtubule protein concentration of 1.0 mg/ml and compound concentration of generally 2.5, 5.0, and 10 μM are used. Initial slopes of OD change measured every 10 seconds were calculated by the program accompanying the instrument after initial and final times of the linear region encompassing at least 3 time points were manually defined. Under these conditions linear variances were generally <10^−6, slopes ranged from 0.03 to 0.002 absorbance unit/minute, and maximum absorbance was 0.15 absorbance units. Effective concentration (EC0.01) is defined as the interpolated concentration capable of inducing an initial slope of 0.01 OD/minute rate and is calculated using the formula: EC0.01=concentration/slope. EC0.01 values are expressed as the mean with standard deviation obtained from 3 different concentrations. EC0.01 values for the compounds in this invention fall in the range 0.01-1000 μM.

[1] = system: HCT-116 human colon carcinoma cells; test: Cytotoxicity (in vitro) by MTS assay; assay type: cell-based; details: read-out: HTC-116 assay IC50
Protocol: Cytoxicity was assessed in HCT-116 human colon carcinoma cells by MTS (3-(4,5-dimethylthiazol-2-yl)-5-(3-carboxymethoxyphenyl)-2-(4-sulphenyl)-2H-tetrazolium, inner salt) assay as reported in T. L. Riss, et. al., “Comparison of MTT, XTT, and a novel tetrazolium compound MTS for in vitro proliferation and chemosensitivity assays.,” Mol. Biol. Cell 3 (Suppl.): 184a, 1992. Cells were plated at 4,000 cell/well in 96 well microtiter plates and 24 hours later drugs were added and serial diluted. The cells were incubated at 37° form 72 hours at which time the tetrazolium dye, MTS at 333 μg/ml (final concentration), in combination with the electron coupling agent phenazine methosulfate at 25 μM (final concentration) was added. A dehydrogenase enzyme in live cells reduces the MTS to a form that absorbs light at […] which can be quantitated spectrophotometrically. The greater the absorbance the greater the number of live cells. The results are expressed as an IC50, which is the drug concentration required to inhibit cell proliferation (i.e. absorbance at 450 nm) to 50% of that of untreated control cells.

[2] = HCT-116, 72 hours incubation, MTS

Compound C/C(=C\c1csc(C)n1)[C@@H]1C[C@@H]2NC2CCCC(C)[C@H](O)[C@@H](C)C(=O)C(C)(C)[C@@H](O)CC(=O)O1 (relative stereo) [Example 1, [1S-[1R*,3R*(E),7R*,10S*,11R*,12R*,16S*]]-7,11-Dihydroxy-8,8,10,12-tetramethyl-3-[1-methyl-2-(2-methyl-4-thiazolyl)ethenyl]-4-oxa-17-azabicyclo[14.1.0]heptadecane-5,9-dione.] has an EC50 (calf brain tubulin) of 14 µM and an IC50 ([1]; HCT-116, 72 h) of 0.0027 µM.
C/C(=C\c1csc(C)n1)[C@@H]1C[C@H]2C(CCCC(C)[C@H](O)[C@@H](C)C(=O)C(C)(C)[C@@H](O)CC(=O)O1)N2C(=O)CN(C)C (relative stereo) [Example 4, [1S-[1R*,3R*(E),7R*,10S*,11R*,12R*,16S*]]-17-[Dimethylamino)acetyl]-7,11-dihydroxy-8,8,10,12-tetramethyl-3-[1-methyl-2(2-methyl-4-thiazolyl)ethenyl]-4-oxa-17-azabicyclo[14.1.0]heptadecane-5,9-dione.] was tested, and the EC50 (calf brain tubulin) was greater than 1000 µM.
C/C(=C\c1csc(C)n1)C1CC2[C@@H](CCC[C@H](C)[C@H](O)[C@@H](C)C(=O)C(C)(C)[C@@H](O)CC(=O)O1)N2C(=O)CC(C)C (relative stereo) [Example 5, [1S-[1R*,3R*(E),7R*,10S*,11R*,12R*,16S*]]-7,11-Dihydroxy-8,8,10,12-tetramethyl-3-[1-methyl-2-(2-methyl-4-thiazolyl)ethenyl]-17-(3-methyl-1-oxobutyl)-4-oxa-17-azabicyclo[14.1.0]heptadecane-5,9-dione.] was tested, and the EC50 (calf brain tubulin) was 3.5 µM and the IC50 [1, 2] was 0.041 µM.
C/C(=C\c1csc(C)n1)C1CC2[C@@H](CCC[C@H](C)[C@H](O)[C@@H](C)C(=O)C(C)(C)[C@@H](O)CC(=O)O1)[N@@]2S(C)(=O)=O (relative stereo) [Example 6, [1S-[1R*,3R*(E), 7R*,10S,11R*,12R*,16S*]]-17-N-Methylsulfonyl-7,11-dihydroxy-8,8,10,12-tetramethyl-3-[1-methyl-2-(2-methyl-4-thiazolyl)ethenyl]-4-oxa-17-azabicyclo[14.1.0]heptadecane-5,9-dione.] gave an EC50 (calf brain tubulin) of 14 µM and an IC50 [1, 2] of 0.0021 µM.
Compound CCNC(=O)N1C2CC(/C(C)=C/c3csc(C)n3)OC(=O)C[C@H](O)C(C)(C)C(=O)[C@H](C)[C@@H](O)[C@@H](C)CCC[C@H]21 (relative stereo) [Example 7, 1S-[1R*,3R*(E),7R*,10S,11R*,12R*,16S*]]-N-Ethyl-7,11-dihydroxy-8,8,10,12-tetramethyl-3-[1-methyl-2-(2-methyl-4-thiazolyl)ethenyl]-4-oxa-17-azabicyclo[14.1.0]heptadecane-5,9-dione-17-carboxamide.] has an EC50 (calf brain tubulin) greater than 1000 µM.
Compound C/C(=C\c1csc(C)n1)C1CC2[C@@H](CCC[C@H](C)[C@H](O)[C@@H](C)C(=O)C(C)(C)[C@@H](O)CC(=O)O1)[N@@]2C (relative stereo) [Example 8, [1S-[1R*,3R*(E),7R*,10S*,11R*,12R*,16S*]]-7,11-Dihydroxy-8,8,10,12,17-pentamethyl-3-[1-methyl-2-(2-methyl-4-thiazolyl)ethenyl]-4-oxa-17-azabicyclo[14.1.0]heptadecane-5,9-dione] has an EC50 (calf brain tubulin) of 2.6 µM and an IC50 ([1]; HCT-116, 72 h) of 0.00013 µM.
Work on C/C(=C\c1csc(C)n1)[C@@H]1C[C@H]2C(CCCC(C)[C@H](O)[C@@H](C)C(=O)C(C)(C)[C@@H](O)CC(=O)O1)[N@@]2Cc1ccccc1 (relative stereo) [Example 15, [1S-[1R*,3R*(E),7R*,10S,11R*,12R*,16S*]]-17-Benzyl-7,11-dihydroxy-8,8,10,12-tetramethyl-3-[1-methyl-2-(2-methyl-4-thiazolyl)ethenyl]-4-oxa-17-azabicyclo[14.1.0]heptadecane-5,9-dione.] yielded an EC50 (calf brain tubulin) of 35 µM and an IC50 ([1]; HCT-116, 72 h) of 0.023 µM.
Compound C/C(=C\c1csc(C)n1)[C@@H]1C[C@H]2C(CCCC(C)[C@H](O)[C@@H](C)C(=O)C(C)(C)[C@@H](O)CC(=O)O1)[N@]2S(N)(=O)=O (relative stereo) [Example 16, [1S-[1R*,3R*(E),7R*,10S,11R*,12R*,16S*]]-17-Sulfonylurea-7,11-dihydroxy-8,8,10,12-tetramethyl-3-[1-methyl-2-(2-methyl-4-thiazolyl)ethenyl]-4-oxa-17-azabicyclo[14.1.0]heptadecane-5,9-dione.] has an EC50 (calf brain tubulin) of 28 µM and an IC50 [1, 2] of 0.036 µM.
CNS(=O)(=O)[N@@]1C2CCCC(C)[C@H](O)[C@@H](C)C(=O)C(C)(C)[C@@H](O)CC(=O)O[C@H](/C(C)=C/c3csc(C)n3)C[C@@H]21 (relative stereo) [Example 17] was tested, and the EC50 (calf brain tubulin) was 2.3 µM and the IC50 [1, 2] was 0.0078 µM.
Work on C/C(=C\c1csc(C)n1)C1CC2[C@@H](CCC[C@H](C)[C@H](O)[C@@H](C)C(=O)C(C)(C)[C@@H](O)CC(=O)O1)[N@@]2S(=O)(=O)N(C)C (relative stereo) [Example 18, [1S-[1R*,3R*(E),7R*,10S*,11R*,12R*,16S*]]-7,11-Dihydroxy-N,N,8,8,10,12-hexamethyl-3-[1-methyl-2-(2-methyl-4-thiazolyl)ethenyl]-5,9-dioxo-4-oxa-17-azabicyclo[14.1.0]heptadecane-17-sulfonamide.] yielded an EC50 (calf brain tubulin) of 1 µM and an IC50 [1, 2] of 0.0002 µM.
In the case of C/C(=C\c1csc(C)n1)C1CC2[C@@H](CCC[C@H](C)[C@H](O)[C@@H](C)C(=O)C(C)(C)[C@@H](O)CC(=O)O1)[N@@]2S(=O)(=O)N1CCOCC1 (relative stereo) [Example 19, [1S-[1R*,3R*(E),7R*,10S,11R*,12R*,16S*]]-17-Morpholinosulfonyl-7,11-dihydroxy-8,8,10,12-tetramethyl-3-[1-methyl-2-(2-methyl-4-thiazolyl)ethenyl]-4-oxa-17-azabicyclo[14.1.0]heptadecane-5,9-dione.], the EC50 (calf brain tubulin) is reported as 460 µM and the IC50 [1, 2] is reported as 0.16 µM.
C/C(=C\c1csc(C)n1)C1CC2[C@@H](CCC[C@H](C)[C@H](O)[C@@H](C)C(=O)C(C)(C)[C@@H](O)CC(=O)O1)N2C(=O)Oc1ccccc1 (relative stereo) [Example 20, [1S-[1R*,3R*(E),7R*,10S,11R*,12R*,16S*]]-7,11-dihydroxy-8,8,10,12-tetramethyl-3-[1-methyl-2-(2-methyl-4-thiazolyl)ethenyl]-4-oxa-17-azabicyclo[14.1.0]heptadecane-5,9-dione-17-carboxylic acid phenyl ester.] was tested, and the EC50 (calf brain tubulin) was 1.1 µM and the IC50 [1, 2] was 0.0018 µM.
Work on CC(=O)N1C2CC(/C(C)=C/c3csc(C)n3)OC(=O)C[C@H](O)C(C)(C)C(=O)[C@H](C)[C@@H](O)[C@@H](C)CCC[C@H]21 (relative stereo) [Example 21, [1S-[1R*,3R*(E),7R*,10S,11R*,12R*,16S*]]-17-Acetyl-7,11-dihydroxy-8,8,10,12-tetramethyl-3-[1-methyl-2-(2-methyl-4-thiazolyl)ethenyl]-4-oxa-17-azabicyclo[14.1.0]heptadecane-5,9-dione.] yielded an EC50 (calf brain tubulin) of 1.2 µM and an IC50 [1, 2] of 0.0009 µM.
In the case of CC(=Cc1csc(C)n1)C1CC2OC2CCCC(C)C(O)C(C)C(=O)C(C)(C)C(O)CC(=O)O1 (stereo not shown) [Epothilone A, reference compound], the IC50 [1, 2] is reported as 0.0044 µM.
CC(=Cc1csc(C)n1)C1CC2OC2(C)CCCC(C)C(O)C(C)C(=O)C(C)(C)C(O)CC(=O)O1 (stereo not shown) [Epothilone B, reference compound] was tested, and the IC50 ([1]; HCT-116, 72 h) was 0.0008 µM.
CCCS(=O)(=O)N1C2CCCC(C)C(O)C(C)C(=O)C(C)(C)C(O)CC(=O)OC(C(C)=Cc3csc(C)n3)CC21 [Example 25, [1S-[1R*,3R*(E),7R*,10S,11R*,12R*,16S*]]-17-N-n-Propylsulfonyl-7,11-dihydroxy-8,8,10,12-tetramethyl-3-[1-methyl-2-(2-methyl-4-thiazolyl)ethenyl]-4-oxa-17-azabicyclo[14.1.0]heptadecane-5,9-dione.] gave an IC50 [1, 2] of 0.094 µM.
CC(=Cc1csc(C)n1)C1CC2C(CCCC(C)C(O)C(C)C(=O)C(C)(C)C(O)CC(=O)O1)N2S(=O)(=O)c1cccs1 (stereo not drawn) [Example 26, [1S-[1R*,3R*(E),7R*,10S*,11R*,12R*,16S*]]-17-(2-thienyl)sulfonyl-7,11-dihydroxy-8,8,10,12-tetramethyl-3-[1-methyl-2-(2-methyl-4-thiazolyl)ethenyl]-4-oxa-17-azabicyclo[14.1.0]heptadecane-5,9-dione.] showed an IC50 [1, 2] of 0.03 µM.
